Measured values reported in ChEMBL document CHEMBL1155773, “Effects of imipenem-cilastatin, ertapenem, piperacillin-tazobactam, and ceftriaxone treatments on persistence of intestinal colonization by extended-spectrum-beta-lactamase-producing Klebsiella pneumoniae strains in mice” (2007).
Converted amounts (≈) assume the structure as drawn. The source made the active and inactive calls. The rule behind the calls is not given here.

How the values were obtained:
Klebsiella pneumoniae [1] = experiment: Antibacterial activity against extended-spectrum-beta-lactamase-producing Klebsiella pneumoniae P62 by broth dilution method; type: functional
Klebsiella pneumoniae [2] = experiment: Antibacterial activity against extended-spectrum-beta-lactamase-producing Klebsiella pneumoniae P10045 by broth dilution method; type: functional
Klebsiella pneumoniae [3] = experiment: Antibacterial activity against extended-spectrum-beta-lactamase-producing Klebsiella pneumoniae P62 infected in sc dosed CF1 mouse with high-density bacterial colonization administered daily for 9 days assessed as suppression of stool bacterial count; type: functional, organism-based
Klebsiella pneumoniae [4] = experiment: Antibacterial activity against extended-spectrum-beta-lactamase-producing Klebsiella pneumoniae isolate; type: functional
Klebsiella pneumoniae [5] = experiment: Antibacterial activity against extended-spectrum-beta-lactamase-producing Klebsiella pneumoniae P10045 infected in sc dosed CF1 mouse with high-density bacterial colonization administered daily for 9 days assessed as suppression of stool bacterial count; type: functional, organism-based
Klebsiella pneumoniae [6] = experiment: Effect on extended-spectrum-beta-lactamase-producing Klebsiella pneumoniae P10045 infected in sc dosed CF1 mouse with high-density bacterial colonization administered daily for 9 days assessed as promotion of persistent bacterial overgrowth by measuring stool bacterial count; type: functional, organism-based
Klebsiella pneumoniae [7] = experiment: Effect on extended-spectrum-beta-lactamase-producing Klebsiella pneumoniae P62 infected in sc dosed CF1 mouse with high-density bacterial colonization administered daily for 9 days assessed as promotion of persistent bacterial overgrowth by measuring stool bacterial count; type: functional, organism-based

Activity (Klebsiella pneumoniae [6])	Activity (Klebsiella pneumoniae [7])	Structure (SMILES)	MIC (Klebsiella pneumoniae [1]) [µg/mL]	MIC (Klebsiella pneumoniae [2]) [µg/mL]	Activity (Klebsiella pneumoniae [3])	MIC (Klebsiella pneumoniae [4]) [µg/mL]	Activity (Klebsiella pneumoniae [5])
–	–	C[C@@H](O)[C@H]1C(=O)N2C(C(=O)O)=C(S[C@@H]3CN[C@H](C(=O)Nc4cccc(C(=O)O)c4)C3)[C@H](C)[C@H]12 [ERTAPENEM]	< 0.25	0.25 (≈ 0.526 µM)	Active	< 0.25	Active
Active	Active	CO/N=C(\C(=O)N[C@@H]1C(=O)N2C(C(=O)O)=C(CSc3nc(=O)c(O)nn3C)CS[C@H]12)c1csc(N)n1 [CEFTRIAXONE]	4 (≈ 7.21 µM)	78 (≈ 141 µM)	–	4 (≈ 7.21 µM)	–
